Earlier results on two compounds are cited in patent US9309233B2, “Compositions and methods for the treatment of blood clotting disorders” (CELLIX BIO PRIVATE LIMITED, priority 2012, dated 2016).

Turning to `CCCCCCOC(=O)NC(=N)c1ccc(NCc2nc3cc(C(=O)N(CCC(=O)OCC)c4ccccn4)ccc3n2C)cc1` [Dabigatran etexilate], for the setting “oral”, the oral bioavailability result is recorded as “≈ 6%”.

Take `[H]/N=C(/N)c1ccc(NCc2nc3cc(C(=O)N(CCC(=O)O)c4ccccn4)ccc3n2C)cc1` [dabigatran]: the “time at which plasma levels peak” value (plasma levels of dabigatran after drug administration (dabigatran etexilate)) is “≈ 2 hours”.
